Test results: patent US10517919B2, “Selective Nox-1 inhibitor peptides and uses thereof” (UNIVERSITE DE BORDEAUX, priority 2013, dated 2019)
Values belong to the substance of their own block, whether it stands above or below them.

How the values were obtained:
[1] = system: NADPH oxidase; assay: NADPH oxidase activity in keratinocytes treated with peptide A variants; format: cell-based; settings: 10 μM, 24 h post-treatment, normalized to scramble treated cells
Protocol: Keratinocytes were treated with 10 μM of the indicated peptides: scramble control peptide P1 (SEQ ID NO: 57), peptide A with tat sequence (SEQ ID NO: 41) or without the tat sequence (SEQ ID NO:20); shorter peptides P7 (SEQ ID NO: 2) and P8 (SEQ ID NO: 56) (FIG. 8A). The NADPH oxidase activity was measured 24 h post-treatment (RLU/μg of proteins) and was normalized to the scramble treated cells (FIG. 8B).

[2] = system: XPC deficient mice; assay: Premature skin aging in XPC deficient mice (progerin, OXPHOS, proteomics); format: in vivo
Protocol: FIGS. 11A and 11B: show the effect of NOX1 inhibitor peptide A (InhNOX) on progerin expression in skin biopsies of young XPC^+/+ and XPC^−/− mice. One month old mice were treated topically with 3 mg/kg (6 mice per group) Nox1 inhibitor peptide A (InhNOX) or control peptide (vehicle) three times per week for three months. (A) Total protein extracts of skin biopsies were assessed for progerin by Western blot analysis. β-actin was used as a loading control. (B) The protein bands corresponding to progerin was quantified and normalized with β-actin. The average density±SD from six mice in each group is presented as the relative value to the density in young wild type mice.
FIGS. 12A and 12B: show the effects of Nox1 inhibitor peptide A (InhNOX) on protein expression of OXPHOS complexes in skin biopsies of young XPC^+/+ and XPC^−/− mice. One month old mice were treated topically with 3 mg/kg (6 mice per group) Nox1 inhibitor peptide A (InhNOX) or control peptide (vehicle) three times per week for three months. (A) Expression of OXPHOS complexes were assessed by western blot analysis. β-actin was used as a loading control. (B) The bands corresponding to different OXPHOS complexes were quantified and normalized with β-actin. The average density±SD from six mice in each group is presented as the relative value to the density in young wild type mice.
To assess the anti-aging effects of Nox1 inhibitor peptide A (SEQ ID NO: 41) the accelerated aging in XPC deficient mice was first evaluated. To this end, the expression of progerin, a truncated version of lamin A protein involved in progeria syndrome, has been evaluated in 4 months old (young) and 1.5 year old (old) proficient and deficient XPC mice (XPC^+/+ and XPC^−/−, respectively) (FIGS. 9A and 9B).
To investigate the role of NADPH oxidase activity on premature aging in XPC deficient mice, one month old XPC^+/+ and XPC^−/− mice have been treated with NOX1 inhibitor peptide or vehicle three times per week for three months. The progerin expression (FIG. 11), OXPHOS protein expression (FIG. 12) and metabolism profile in murine epidermal cells have been then evaluated. […] To have a general idea on the effects of NOX1 peptide inhibitor on the XPC knockdown-induced metabolism alteration, proteomic approach has been used.

[3] = biological target: T1, Nox1 activity in mouse skin (Mus musculus, UniProt Q8CJ00); assay: NADPH oxidase activity in mouse skin after topical treatment; format: in vivo, SKH-1 mice; settings: 3 and 12 mg/kg
T1 construct: from tissue; host or cells: skin biopsies of SKH-1 mice
T1 sequence (Q8CJ00 1-444): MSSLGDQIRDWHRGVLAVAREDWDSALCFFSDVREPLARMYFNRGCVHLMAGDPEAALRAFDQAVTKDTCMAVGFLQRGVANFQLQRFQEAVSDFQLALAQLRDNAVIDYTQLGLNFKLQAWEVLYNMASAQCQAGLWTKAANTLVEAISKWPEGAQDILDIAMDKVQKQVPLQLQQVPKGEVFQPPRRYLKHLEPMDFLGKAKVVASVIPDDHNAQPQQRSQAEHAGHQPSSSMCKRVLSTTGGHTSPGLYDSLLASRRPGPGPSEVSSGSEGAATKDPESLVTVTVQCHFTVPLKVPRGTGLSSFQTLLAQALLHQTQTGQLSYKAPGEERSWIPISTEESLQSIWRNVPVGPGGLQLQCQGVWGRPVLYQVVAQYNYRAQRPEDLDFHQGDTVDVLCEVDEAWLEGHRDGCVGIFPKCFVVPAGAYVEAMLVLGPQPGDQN
Protocol: (§1) FIGS. 5A and 5B: show effect of peptide A on Nox1 activity in mouse skin. SKH-1 mice were treated topically with different doses: 0.4, 3 and 12 mg/kg (3 mice per dose) of Nox1 inhibitor peptide A. Skin biopsies were harvested 2 h, 24 h, 48 h and 72 h post-treatment and the NADPH oxidase activity was measured (RLU/μg of proteins). Results was normalized to the non-treated (NT) mice and expressed as % of inhibition of Nox activity. (B) Mice were treated topically with 3 and 12 mg/kg of peptide A (2 mice per dose). 10 min after treatment, mice were exposed to UVB (150 mJ/cm^2). Skin biopsies were harvested 2 h, 24 h. At 46 h after first treatment, mice were treated again with the same concentration of peptide A and exposed to UVB 10 min later. Skin biopsies were then harvested at 2 h, 24 h (i.e. 48 and 72 h after first treatment, respectively). The NADPH oxidase activity was measured (RLU/μg of proteins) and was normalized to the non-treated (NT) and non-irradiated mice.
(§2) To examine the effect of peptide A on Nox1 activity in mouse skin, SKH-1 mice were treated topically with different doses of peptide A (FIG. 5A). […] The effect of peptide A on UVB irradiated mice was then tested (FIG. 5B).

[4] = system: NADPH oxidase; assay: NADPH oxidase activity in non-tumor bearing skin and UVB-induced tumors after 29 weeks; format: in vivo, SKH-1 mice; settings: compared with vehicle treated mice, after 29 weeks of treatment
Protocol: Mice were sacrificed after 29 weeks of treatment. Non-tumor bearing skin and tumors were harvested from irradiated mice treated with peptide A or the vehicle. NADPH oxidase activity was measured as RLU/μg of proteins in non-tumor bearing skin and UVB-induced tumors. Relative inhibition of Nox activity in non-tumor bearing skin and tumors was evaluated following arbitrary setting the Nox activity in non-tumor bearing skin and tumors taken from vehicle treated-mice to 100%. Results were then expressed as the average percentage of vehicle-treated mice.
The activity of NADPH oxidase was reduced 70% in non-tumor bearing skin and 54% in tumors isolated from mice treated with peptide A compared with vehicle treated mice (FIG. 7).

[5] = system: primary human keratinocytes; assay: ROS level with CM-H2DCF-DA probes in keratinocytes; format: cell-based; settings: 10 or 50 μM, 24 h
Protocol: (§3) FIGS. 2A and 2B: show the relative ROS level as measured in primary human keratinocytes and HT29 (human colon adenocarcinoma cell line) treated with 10 or 50 μM of peptide inhibitor for 24 h using the CM-H2DCF-DA probes. Cells were treated with 10 μM of the peptides A (SEQ ID NO: 41), B (SEQ ID NO: 42), and C (SEQ ID NO: 43), and the ROS level was measured 24 h post-treatment. ROS level was normalized to non-treated cells (NTC) (*P<0.05).
(§4) ROS level in primary human keratinocytes treated with 10 or 50 μM of peptides A, B, and C for 24 h were assayed using the CM-H2DCF-DA probes (FIG. 2A).

[6] = biological target: T2, Nox1 (Homo sapiens, UniProt Q86UR1); assay: ROS level in shCtrl, shNox1 or shNox2-transduced keratinocytes; format: cell-based; settings: shNox1-transduced keratinocytes, 24 h post-treatment, compared to control peptide C
T2 construct: endogenous in cells; host or cells: keratinocytes transduced with lentiviral shCtrl, shNox1 or shNox2
T2 sequence (Q86UR1 1-476): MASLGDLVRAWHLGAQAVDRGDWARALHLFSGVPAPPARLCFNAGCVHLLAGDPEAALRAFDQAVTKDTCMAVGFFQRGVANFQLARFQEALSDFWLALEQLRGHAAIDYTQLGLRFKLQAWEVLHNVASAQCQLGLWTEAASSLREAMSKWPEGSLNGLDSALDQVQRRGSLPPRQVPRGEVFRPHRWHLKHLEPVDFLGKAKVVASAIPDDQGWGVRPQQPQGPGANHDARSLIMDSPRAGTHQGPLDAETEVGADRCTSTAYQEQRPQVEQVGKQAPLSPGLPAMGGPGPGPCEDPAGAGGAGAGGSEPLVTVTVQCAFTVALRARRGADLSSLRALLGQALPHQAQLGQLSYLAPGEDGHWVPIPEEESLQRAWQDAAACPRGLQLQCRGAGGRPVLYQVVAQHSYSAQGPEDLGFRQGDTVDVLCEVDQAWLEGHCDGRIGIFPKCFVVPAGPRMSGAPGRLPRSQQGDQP
Protocol: (§5) FIGS. 3A, 3B and 3C: show inhibition of endogenous Nox1 and Nox2 protein expression using lentivirus-mediated expression of shRNA against Nox1 and Nox2. Keratinocytes were transduced with different shRNA (shNox1, shNox2 and the control shCtrl). Transduction efficacy was checked by western blotting analysis. […] Transduction efficacy was checked by western blotting analysis. Relative ROS level (3B) and Nox activity (3C) were measured 24 h post-treatment with Nox1 inhibitor peptide A compared to control peptide C. ROS level was normalized to counterpart peptide C-treated cells. NADPH oxidase activity was measured by relative luminescence unit (RLU) per μg of proteins. *P<0.05. […] In FIG. 3C NADPH oxidase activity was measured in shCtrl and shNox1-transduced cells treated with or without Nox1 inhibitor peptide A.
(§6) To examine the specificity of these peptides, the expression of endogenous Nox1 and Nox2 protein was inhibited using lentivirus-mediated expression of shRNA against Nox1 and Nox2. […] Further, NADPH oxidase activity was measured in shCtrl and shNox1-transduced cells treated with or without peptide A (FIG. 3C).

[7] = system: NADPH oxidase; assay: NADPH oxidase activity in shCtrl and shNox1-transduced keratinocytes; format: cell-based, human; settings: peptide A-treated cells versus shNox1-transduced cells and shNox1-transduced cells treated with peptide A
Protocol: as §5, §6

[8] = system: human colon adenocarcinoma HT29 cell line; assay: ROS level in HT29 cells, in which Nox1 is the only active Nox; format: cell-based; settings: 24 h post-treatment
Protocol: as §3, §4

[9] = system: UVB-induced squamous cell carcinomas (SCC); assay: UVB-induced squamous cell carcinoma induction (photocarcinogenesis); format: in vivo, SKH-1 hairless mice; settings: for tumors with a volume less than 5 mm^3: 3 mg/kg topical, week 29
Protocol: FIGS. 6A, 6B and 6C: show the photoprotective effects of peptide A on UVB-induced squamous cell carcinomas (SCC) induction using SKH-1 hairless mice. Mice were treated topically with 3 mg/kg of peptide A or control peptide, and irradiated with UVB 10 min later three times per week. The number (6A) and the size (6B) of tumors were assessed once a week during 29 weeks (6C). The tumor volume distribution was evaluated at week 29. Clearly there is a considerable reduction in numbers and size of UVB-induced tumors in SKH-1 mice administrated topically with peptide A.
To examine the photoprotective effects of peptide A, the effect of peptide A administration on UVB-induced squamous cell carcinomas (SCC) induction using SKH-1 hairless mice, a well-defined murine model for the study of photocarcinogenesis that develops skin tumors including benign papilloma and malignant SCC. The validity of this model is exemplified by the remarkable similarity between UVB-induced carcinogenesis in these mice and the UV carcinogenesis pathway in human skin. SKH-1 hairless mice have yield extremely valuable data on the dose, time-course and the action spectrum for skin tumorigenesis following chronic UV B irradiation. In this study, peptide A (3 mg/kg) was administrated three times per week and 10 minutes prior to each UV B exposure.

[10] = system: UVB-induced Nox activation; assay: UVB-induced Nox activation in skin of irradiated mice; format: in vivo, SKH-1 mice; settings: topical 3 and 12 mg/kg, 10 min prior to irradiation (UVB 150 mJ/cm^2)
Protocol: as §1, §2

[11] = XPC^−/− mice, 3 mg/kg topical three times per week for three months
[12] = 3 mg/kg topical three times per week, 10 minutes prior to each UVB exposure, 29 weeks

Substance: tat-P-P-T-V-P-T-R-P-S (RKKRRQRRRPPTVPTRPS; FUSION PEPTIDE) [peptide A, target SH3-NoxA1]
XPC deficiency-induced premature aging ([2]; XPC deficient mice): blocked
XPC deficiency-induced metabolic alteration (proteomic approach) ([2]; XPC deficient mice, three times per week for three months): eliminated the effects
expression of OXPHOS complexes I, II and III [2, 11]: abrogated the decrease
protein expression of progerin in skin [2, 11]: blocked the increase
duration of efficient inhibition of Nox activity in skin [3]: up to 3 days
reduction of NADPH oxidase activity in non-tumor bearing skin [4]: 70%
reduction of NADPH oxidase activity in tumors [4]: 54%
ROS level [5]: significant decrease
steady-state levels of ROS in shNox1-transduced cells [6]: no effect
NADPH oxidase activity [7]: Equally decreased
ROS level [8]: significant reduction
decrease in tumor number [9, 12]: 2.3 times
decrease in tumor size [9, 12]: 2.9 times
tumors with a volume less than 5 mm^3 [9]: 57%
UVB-induced Nox activation [10]: efficiently blocked

Substance: tat-C-L-R-I-T-R-Q-S-R [peptide C, reference compound]
tumors with a volume less than 5 mm^3 [9]: 8%

Substance: PPTVPTR (HOMO SAPIENS) [P7, shorter peptide derived from peptide A]
XPC deficiency-induced premature aging ([2]; XPC deficient mice): blocked
all experiments of Example 8 repeated, compared with peptide A ([2]; XPC deficient mice): the same results have been obtained
inhibition of NADPH oxidase activity [1]: efficiently inhibit

Substance: tat-I-Q-S-R-C-C-T-V-T (RKKRRQRRRIQSRCCTVT; FUSION PEPTIDE) [peptide B, target SH3-NoxA1]
ROS level [5]: significant decrease
ROS level [8]: significant reduction

Second part, the substance after the results:

inhibition of NADPH oxidase activity [1]: efficiently inhibit
Substance: P8: shorter peptide derived from peptide A, sequence not printed (PPTVPTRP; … PEPTIDIC FRAGMENT)

inhibition of NADPH oxidase activity [1]: as efficiently as peptide A
Substance: PPTVPTRPS (HOMO SAPIENS) [peptide A without tat]
